Here are results for four compounds from ChEMBL document CHEMBL5550210, “Discovery of Novel α,β-Unsaturated Amide Derivatives as Candidate Antifungals to Overcome Fungal Resistance” (J Med Chem, 2024).

Structures are written as SMILES. ≈ marks a conversion by molar mass, not a printed value.

The test system of one experiment is Aspergillus fumigatus. In words: Antifungal activity against Aspergillus fumigatus CGMCC 3.7795 assessed as inhibition of fungal growth by CLSI protocol based microdilution method.
Conditions: not given
Type of experiment: functional. (In general: Broth dilution looks for growth in wells or tubes with falling amounts of substance.)
The MIC is the lowest concentration found to suppress growth. Regarding `CCCNC(=O)/C=C/c1ccc(COC(Cn2ccnc2)c2ccc(Cl)cc2Cl)cc1` (configuration not stated), the MIC is 4 µg/mL (≈ 8.73 µM).

As for `O=C(/C=C/c1ccc(COC(Cn2ccnc2)c2ccc(Cl)cc2Cl)cc1)Nc1cccc(Br)c1` (configuration not stated), the MIC was found to be 4 µg/mL (≈ 7 µM).

As to `NC(=O)/C=C/c1ccc(COC(Cn2ccnc2)c2ccc(Cl)cc2Cl)cc1` (configuration not stated), the MIC came out at 64 µg/mL (≈ 154 µM).

Take `O=C(/C=C/c1ccc(COC(Cn2ccnc2)c2ccc(Cl)cc2Cl)cc1)Nc1ccc(F)cc1` (configuration not stated): the minimal inhibitory concentration (MIC) came to 1 µg/mL (≈ 1.96 µM).

Another experiment concerns Candida albicans. Briefly: Antifungal activity against Candida albicans SC5314 assessed as inhibition of fungal growth by CLSI protocol based microdilution method. Type of experiment: functional.
Conditions: not given
Consider `CCCNC(=O)/C=C/c1ccc(COC(Cn2ccnc2)c2ccc(Cl)cc2Cl)cc1` (configuration not stated), for which the minimum inhibitory concentration (MIC) was determined as 0.03 µg/mL (≈ 0.0654 µM).

As to `O=C(/C=C/c1ccc(COC(Cn2ccnc2)c2ccc(Cl)cc2Cl)cc1)Nc1cccc(Br)c1` (configuration not stated), the MIC was 0.125 µg/mL (≈ 0.219 µM).

Take `NC(=O)/C=C/c1ccc(COC(Cn2ccnc2)c2ccc(Cl)cc2Cl)cc1` (configuration not stated): the MIC was 1 µg/mL (≈ 2.4 µM).

For `O=C(/C=C/c1ccc(COC(Cn2ccnc2)c2ccc(Cl)cc2Cl)cc1)Nc1ccc(F)cc1` (configuration not stated), the MIC was determined as 0.03 µg/mL (≈ 0.0588 µM).

Another experiment deals with Candida albicans. Briefly: Antifungal activity against Candida albicans CPCC400616 assessed as inhibition of fungal growth by CLSI protocol based microdilution method. Type of experiment: functional.
Conditions: not given
`CCCNC(=O)/C=C/c1ccc(COC(Cn2ccnc2)c2ccc(Cl)cc2Cl)cc1` (configuration not stated): the MIC turned out to be 0.06 µg/mL (≈ 0.131 µM).

In the case of `O=C(/C=C/c1ccc(COC(Cn2ccnc2)c2ccc(Cl)cc2Cl)cc1)Nc1cccc(Br)c1` (configuration not stated), the MIC was found to be 0.25 µg/mL (≈ 0.438 µM).

In the case of `NC(=O)/C=C/c1ccc(COC(Cn2ccnc2)c2ccc(Cl)cc2Cl)cc1` (configuration not stated), the minimal inhibitory concentration (MIC) came out at 2 µg/mL (≈ 4.8 µM).

Take `O=C(/C=C/c1ccc(COC(Cn2ccnc2)c2ccc(Cl)cc2Cl)cc1)Nc1ccc(F)cc1` (configuration not stated): the MIC was determined as 0.06 µg/mL (≈ 0.118 µM).

In a further experiment the test system is Candida albicans. Briefly: Antifungal activity against fluconazole-resistant Candida albicans 901 assessed as inhibition of fungal growth by CLSI based microdilution method. The experiment is classed as functional.
Conditions: not given
Turning to `CCCNC(=O)/C=C/c1ccc(COC(Cn2ccnc2)c2ccc(Cl)cc2Cl)cc1` (configuration not stated), the MIC was found to be 16 µg/mL (≈ 34.9 µM).

Turning to `O=C(/C=C/c1ccc(COC(Cn2ccnc2)c2ccc(Cl)cc2Cl)cc1)Nc1cccc(Br)c1` (configuration not stated), the MIC stood at 4 µg/mL (≈ 7 µM).

As to `NC(=O)/C=C/c1ccc(COC(Cn2ccnc2)c2ccc(Cl)cc2Cl)cc1` (configuration not stated), the MIC amounted to 32 µg/mL (≈ 76.9 µM).

Regarding `O=C(/C=C/c1ccc(COC(Cn2ccnc2)c2ccc(Cl)cc2Cl)cc1)Nc1ccc(F)cc1` (configuration not stated), the MIC is 1 µg/mL (≈ 1.96 µM).

The next experiment relates to Cryptococcus neoformans. Briefly: Antifungal activity against Cryptococcus neoformans CGMCC2.3161 assessed as inhibition of fungal growth by CLSI protocol based microdilution method. The experiment is classed as functional.
Conditions: not given
Turning to `CCCNC(=O)/C=C/c1ccc(COC(Cn2ccnc2)c2ccc(Cl)cc2Cl)cc1` (configuration not stated), the MIC was determined as 4 µg/mL (≈ 8.73 µM).

`O=C(/C=C/c1ccc(COC(Cn2ccnc2)c2ccc(Cl)cc2Cl)cc1)Nc1cccc(Br)c1` (configuration not stated): the MIC came to 8 µg/mL (≈ 14 µM).

Take `NC(=O)/C=C/c1ccc(COC(Cn2ccnc2)c2ccc(Cl)cc2Cl)cc1` (configuration not stated): the MIC turned out to be 16 µg/mL (≈ 38.4 µM).

In the case of `O=C(/C=C/c1ccc(COC(Cn2ccnc2)c2ccc(Cl)cc2Cl)cc1)Nc1ccc(F)cc1` (configuration not stated), the MIC was 2 µg/mL (≈ 3.92 µM).

The subject of the next experiment is Nakaseomyces glabratus. Briefly: Antifungal activity against Candida glabrata assessed as inhibition of fungal growth by CLSI protocol based microdilution method.
Conditions: not given
The experiment is classed as functional.
As to `CCCNC(=O)/C=C/c1ccc(COC(Cn2ccnc2)c2ccc(Cl)cc2Cl)cc1` (configuration not stated), the MIC is 8 µg/mL (≈ 17.5 µM).

In the case of `O=C(/C=C/c1ccc(COC(Cn2ccnc2)c2ccc(Cl)cc2Cl)cc1)Nc1cccc(Br)c1` (configuration not stated), the minimal inhibitory concentration (MIC) amounted to 64 µg/mL (≈ 112 µM).

For the compound `NC(=O)/C=C/c1ccc(COC(Cn2ccnc2)c2ccc(Cl)cc2Cl)cc1` (configuration not stated), the MIC turned out to be 64 µg/mL (≈ 154 µM).

Take `O=C(/C=C/c1ccc(COC(Cn2ccnc2)c2ccc(Cl)cc2Cl)cc1)Nc1ccc(F)cc1` (configuration not stated): the MIC was determined as 32 µg/mL (≈ 62.7 µM).

The next experiment concerns Candida tropicalis. In words: Antifungal activity against Candida tropicalis CGMCC 2.3739 assessed as inhibition of fungal growth by CLSI protocol based microdilution method. The experiment is classed as functional.
Conditions: not given
Turning to `CCCNC(=O)/C=C/c1ccc(COC(Cn2ccnc2)c2ccc(Cl)cc2Cl)cc1` (configuration not stated), the minimum inhibitory concentration (MIC) is 8 µg/mL (≈ 17.5 µM).

For `O=C(/C=C/c1ccc(COC(Cn2ccnc2)c2ccc(Cl)cc2Cl)cc1)Nc1cccc(Br)c1` (configuration not stated), the MIC worked out at 64 µg/mL (≈ 112 µM).

`NC(=O)/C=C/c1ccc(COC(Cn2ccnc2)c2ccc(Cl)cc2Cl)cc1` (configuration not stated): the MIC is 8 µg/mL (≈ 19.2 µM).

As to `O=C(/C=C/c1ccc(COC(Cn2ccnc2)c2ccc(Cl)cc2Cl)cc1)Nc1ccc(F)cc1` (configuration not stated), the MIC came to 2 µg/mL (≈ 3.92 µM).

Another experiment concerns Candida parapsilosis. In words: Antifungal activity against Candida parapsilosis ATCC 22019 assessed as inhibition of fungal growth by CLSI protocol based microdilution method. Type of experiment: functional. The conditions noted are these: Lodderomyces parapsilosis.
With `CCCNC(=O)/C=C/c1ccc(COC(Cn2ccnc2)c2ccc(Cl)cc2Cl)cc1` (configuration not stated), the MIC is 0.125 µg/mL (≈ 0.273 µM).

For `O=C(/C=C/c1ccc(COC(Cn2ccnc2)c2ccc(Cl)cc2Cl)cc1)Nc1cccc(Br)c1` (configuration not stated), the MIC was 0.125 µg/mL (≈ 0.219 µM).

With `NC(=O)/C=C/c1ccc(COC(Cn2ccnc2)c2ccc(Cl)cc2Cl)cc1` (configuration not stated), the MIC worked out at 4 µg/mL (≈ 9.61 µM).

Take `O=C(/C=C/c1ccc(COC(Cn2ccnc2)c2ccc(Cl)cc2Cl)cc1)Nc1ccc(F)cc1` (configuration not stated): the minimal inhibitory concentration (MIC) was determined as 32 µg/mL (≈ 62.7 µM).

The next experiment relates to Candida albicans. Briefly: Antifungal activity against fluconazole-resistant Candida albicans 904 assessed as inhibition of fungal growth by CLSI based microdilution method. The experiment is classed as functional.
Conditions: not given
Regarding `CCCNC(=O)/C=C/c1ccc(COC(Cn2ccnc2)c2ccc(Cl)cc2Cl)cc1` (configuration not stated), the MIC amounted to 16 µg/mL (≈ 34.9 µM).

As to `O=C(/C=C/c1ccc(COC(Cn2ccnc2)c2ccc(Cl)cc2Cl)cc1)Nc1cccc(Br)c1` (configuration not stated), the MIC amounted to 2 µg/mL (≈ 3.5 µM).

For `NC(=O)/C=C/c1ccc(COC(Cn2ccnc2)c2ccc(Cl)cc2Cl)cc1` (configuration not stated), the MIC came to 32 µg/mL (≈ 76.9 µM).

On to `O=C(/C=C/c1ccc(COC(Cn2ccnc2)c2ccc(Cl)cc2Cl)cc1)Nc1ccc(F)cc1` (configuration not stated), for which the MIC worked out at 0.5 µg/mL (≈ 0.98 µM).

In another experiment the test system is Pichia kudriavzevii. In words: Antifungal activity against Candida krusei AS 2.1045 assessed as inhibition of fungal growth by CLSI protocol based microdilution method.
Conditions: not given
Type of experiment: functional.
`CCCNC(=O)/C=C/c1ccc(COC(Cn2ccnc2)c2ccc(Cl)cc2Cl)cc1` (configuration not stated): the MIC is 4 µg/mL (≈ 8.73 µM).

As to `O=C(/C=C/c1ccc(COC(Cn2ccnc2)c2ccc(Cl)cc2Cl)cc1)Nc1cccc(Br)c1` (configuration not stated), the MIC is 64 µg/mL (≈ 112 µM).

Regarding `NC(=O)/C=C/c1ccc(COC(Cn2ccnc2)c2ccc(Cl)cc2Cl)cc1` (configuration not stated), the MIC is 64 µg/mL (≈ 154 µM).

With `O=C(/C=C/c1ccc(COC(Cn2ccnc2)c2ccc(Cl)cc2Cl)cc1)Nc1ccc(F)cc1` (configuration not stated), the MIC amounted to 64 µg/mL (≈ 125 µM).

Another experiment relates to Candida albicans. Briefly: Antifungal activity against fluconazole-resistant Candida albicans CaR assessed as inhibition of fungal growth by CLSI based microdilution method.
Conditions: not given
Type of experiment: functional.
Regarding `CCCNC(=O)/C=C/c1ccc(COC(Cn2ccnc2)c2ccc(Cl)cc2Cl)cc1` (configuration not stated), the MIC amounted to 64 µg/mL (≈ 140 µM).

Regarding `O=C(/C=C/c1ccc(COC(Cn2ccnc2)c2ccc(Cl)cc2Cl)cc1)Nc1cccc(Br)c1` (configuration not stated), the MIC was found to be 128 µg/mL (≈ 224 µM).

As for `NC(=O)/C=C/c1ccc(COC(Cn2ccnc2)c2ccc(Cl)cc2Cl)cc1` (configuration not stated), the MIC worked out at 128 µg/mL (≈ 307 µM).

Turning to `O=C(/C=C/c1ccc(COC(Cn2ccnc2)c2ccc(Cl)cc2Cl)cc1)Nc1ccc(F)cc1` (configuration not stated), the MIC is 4 µg/mL (≈ 7.84 µM).

For a further experiment, the system named is Candida albicans. In words: Antifungal activity against fluconazole-resistant Candida albicans 632 assessed as inhibition of fungal growth by CLSI based microdilution method. Type of experiment: functional.
Conditions: not given
For the compound `CCCNC(=O)/C=C/c1ccc(COC(Cn2ccnc2)c2ccc(Cl)cc2Cl)cc1` (configuration not stated), the MIC amounted to 2 µg/mL (≈ 4.36 µM).

Take `O=C(/C=C/c1ccc(COC(Cn2ccnc2)c2ccc(Cl)cc2Cl)cc1)Nc1cccc(Br)c1` (configuration not stated): the minimal inhibitory concentration (MIC) stood at 4 µg/mL (≈ 7 µM).

`NC(=O)/C=C/c1ccc(COC(Cn2ccnc2)c2ccc(Cl)cc2Cl)cc1` (configuration not stated): the MIC was 16 µg/mL (≈ 38.4 µM).

For the compound `O=C(/C=C/c1ccc(COC(Cn2ccnc2)c2ccc(Cl)cc2Cl)cc1)Nc1ccc(F)cc1` (configuration not stated), the minimum inhibitory concentration (MIC) is 0.25 µg/mL (≈ 0.49 µM).

A further experiment concerns Candida albicans. In words: Antifungal activity against fluconazole-resistant Candida albicans 17 assessed as inhibition of fungal growth by CLSI based microdilution method. The experiment is classed as functional.
Conditions: not given
Take `CCCNC(=O)/C=C/c1ccc(COC(Cn2ccnc2)c2ccc(Cl)cc2Cl)cc1` (configuration not stated): the MIC worked out at 32 µg/mL (≈ 69.8 µM).

For the compound `O=C(/C=C/c1ccc(COC(Cn2ccnc2)c2ccc(Cl)cc2Cl)cc1)Nc1cccc(Br)c1` (configuration not stated), the MIC turned out to be 128 µg/mL (≈ 224 µM).

On to `NC(=O)/C=C/c1ccc(COC(Cn2ccnc2)c2ccc(Cl)cc2Cl)cc1` (configuration not stated), for which the MIC was determined as 128 µg/mL (≈ 307 µM).

Turning to `O=C(/C=C/c1ccc(COC(Cn2ccnc2)c2ccc(Cl)cc2Cl)cc1)Nc1ccc(F)cc1` (configuration not stated), the MIC is 128 µg/mL (≈ 251 µM).
